Experiments:
[1] = tested on: bovine coccidia (Eimeria bovis ~90% and Eimeria auburnenis ~10%); test: Example 1: coccidiosis in Eimeria challenged calves, treated once clinical disease and oocyst shedding had begun; format: in vivo; settings: for mean daily attitude scores compared to the saline controls / mean daily fecal consistency scores compared to the saline treated calves / number of animals that ceased oocyst shedding compared to the saline treated calves: amprolium oral SIDX5; for Mortality Rates: 8 calves, 21 day study; for calves that died due to coccidiosis: deaths within 24 hours of dosing; for number of animals that ceased oocyst shedding compared to the saline treated calves: from day 6 post-dosing, Formula II 5 and 2.5 mg/kg
Description: Administration of an azalide macrolide antibiotic according to the invention was compared with administration of amprolium, a commercially available agent, and saline control solution, in preventing full development of coccidiosis in Eimeria challenged calves.
Eighty naive calves weighing approximately 110-125 kg were housed in twenty holding pens (4 animals/pen) 16 days prior to study initiation. […] The calves were acclimated in order to facilitate coccidial exposure and allow time for clinical signs to develop. On day 14, with no signs of naturally occurring coccidiosis in the calves, each calf was challenged orally with a mixed culture of bovine coccidia (Eimeria bovis˜90% and Eimeria auburnenis ˜10%). Calves were each also challenged orally with 1.25×10^7 oocysts and observed for signs of clinical disease. On day 23 post-challenge, calves began to show signs of clinical disease and fecal samples were taken to determine oocyst shedding.
Calves were randomly allotted to one of six treatment groups. They were weighed at allotment and treatments administered subcutaneously in the pre-scapular region of the neck. Amprolium was administered by drench dosing (SIDX5) beginning on the day of allotment.
Rectal temperatures were determined and recorded at approximately the same time each day for the 21 day duration of the study. Attitude, hydration and fecal consistency scores were evaluated daily. Daily fecal samples were taken for qualitative analysis of the shedding of oocysts. Mortalities were necropsied and gross findings were recorded.
At termination of the experiment, surviving animals were weighed, euthanized, and post-mortem examinations conducted.

[2] = tested on: Eimeria culture (93% E bovis, 4% E. auburnenis and 3% E. zuernii); test: Example 2: prevention of coccidiosis in Eimeria challenged calves, treated day 10 post-challenge; format: in vivo; settings: for Mortality Rates: 10 calves, 28 day study; for clinical responses compared to saline treated animals: conclusion of Example 2; for oocyst shedding compared with the saline controls: days 19-28 post-infection; for oocyst shedding compared with the saline controls / mean daily attitude scores compared to the saline controls / mean daily fecal consistency scores compared with the saline treated calves / mean daily hydration scores compared to the saline treated calves: tilmicosin 10 mg/kg SC once, amprolium 10 mg/kg oral 5 days; for calves that died due to coccidiosis: deaths on day 23 and day 28 post-infection; for mean daily attitude scores compared to the saline controls / mean daily fecal consistency scores compared with the saline treated calves: p≦0.05
Description: Administration of amprolium was compared with tilmicosin, a commercially available macrolide antibiotic, in the prevention of coccidiosis in Eimeria challenged calves.
Sixty naive calves were housed in five holding pens (12 animals/pen). Calves were held 7 days prior to challenge in order to acclimate to the facility. On days −6, −4, and −2 pre-challenge fecal samples were obtained for semi-quantitative oocyst counts. On day −4 pre-challenge, oocysts were speciated if present. On day 0 calves were inoculated orally with the Eimeria culture. Temperatures were determined and recorded at approximately the same time each day for the duration of the study. Attitude, hydration and fecal consistency scores were evaluated daily. Post-challenge, fecal samples were collected on days 2, 4, 6, 8 and 10. Oocysts were speciated on day 10 post-challenge.
On day 10 post-challenge, each of fifty animals was randomly allotted to one of five treatment groups. Agents were either administered subcutaneously in the pre-scapular region of the neck or drench dosed orally.
Post-treatment, fecal samples were taken for semi-quantitative analysis of the shedding of coccidia oocysts on days 12, 14, 16 and 18. Beginning on day 19 and continuing through day 28, daily fecal samples were evaluated for semi-quantitative counts. Speciation of shed oocysts was performed on days 19-21, 23, 26 and 28.
Calves dying during the course of the study or euthanized due to a moribund condition associated with clinical coccidiosis were considered mortalities. Mortalities were necropsied and gross findings were recorded. At study termination (day 28), all remaining animals were weighed, euthanized, and post mortem examinations conducted.
Description of Disease Outbreak—Calves were inoculated orally with 2 ml of a coccidia challenge containing 125,000 sporulated oocysts with a species percent count of 93% E bovis, 4% E. auburnenis and 3% E. zuernii coccidia oocysts. At 19 days post-challenge, oocyst shedding was detected.

[3] = Formula II 5 and 2.5 mg/kg SC once, p>0.05
[4] = amprolium (Corid 20% soluble powder) oral drench SIDX5

Question: Which results are given for `CCCc1ncc(C[n+]2ccccc2C)c(N)n1` [Amprolium, amprolium]?
Answer: mean daily attitude scores compared to the saline controls [1, 3]: significant reductions; mean daily fecal consistency scores compared to the saline treated calves [1, 3]: statistically significant reductions; 21 Day Average Daily Gain [1, 4]: 0.75 kg; Proportion of infected calves that ceased oocyst shedding 6 days post-treatment [1, 4]: 7/7 (100%); Mortality Rates [1, 4]: 1/8 (13%); clinical responses (clinical scores, weight gain and oocyst shedding) compared to the saline control group ([1]; conclusion of Example 1): improved clinical responses; calves that died due to coccidiosis ([1]; azalide at 5 and 2.5 mg/kg): one; number of animals that ceased oocyst shedding compared to the saline treated calves ([1]; p>0.05): significant increase; 21 day average daily weight gain relative to saline [2]: Numerical increases in weight gain; 21 Day Average Daily Gain ([2]; amprolium 10 mg/kg, 5 days drench dosing): 0.60 kg; Mortality Rates ([2]; amprolium (Corid 9.6% Oral Solution) 10 mg/kg, 5 days drench dosing): 1/10 (10%); clinical responses compared to saline treated animals [2]: improved clinical responses; oocyst shedding compared with the saline controls [2]: decreased oocyst shedding; calves that died due to coccidiosis [2]: One animal; mean daily attitude scores compared to the saline controls [2]: significant reductions; mean daily fecal consistency scores compared with the saline treated calves [2]: statistically significant reductions; mean daily hydration scores compared to the saline treated calves [2]: reductions

Question: What does the source list for `CCCN(C)C[C@]1(O)[C@H](C)O[C@@H](O[C@H]2[C@H](C)[C@@H](O[C@@H]3O[C@H](C)C[C@H](N(C)C)[C@H]3O)[C@@](C)(O)C[C@@H](C)CN[C@H](C)[C@@H](O)[C@](C)(O)[C@@H](CC)OC(=O)[C@@H]2C)C[C@@]1(C)OC` [Compound of Formula II]?
Answer: 21 Day Average Daily Gain ([1]; 2.5 mg/kg, SIDX1, SC): 1.03 kg; Proportion of infected calves that ceased oocyst shedding 6 days post-treatment ([1]; 2.5 mg/kg, SIDX1, SC): 7/8 (88%); Mortality Rates ([1]; 2.5 mg/kg, SIDX1, SC): 0/8 (0%); 21 Day Average Daily Gain ([1]; 5 mg/kg, SIDX1, SC): 0.79 kg; Proportion of infected calves that ceased oocyst shedding 6 days post-treatment ([1]; 5 mg/kg, SIDX1, SC): 7/8 (88%); Mortality Rates ([1]; 5 mg/kg, SIDX1, SC): 0/8 (0%); mean daily attitude scores compared to the saline controls [1, 3]: significant reductions; mean daily fecal consistency scores compared to the saline treated calves [1, 3]: statistically significant reductions; mean daily hydration scores compared to the saline treated calves [1, 3]: statistically significant reductions; 21 day weight gain compared to the saline controls ([1]; azalide at 5 and 2.5 mg/kg): Numerical increases in weight gain; clinical responses (clinical scores, weight gain and oocyst shedding) compared to the saline control group ([1]; conclusion of Example 1): improved clinical responses; efficacy relative to amprolium ([1]; conclusion of Example 1, less complicated dosing regimen): comparable to that of amprolium; calves that died due to coccidiosis ([1]; azalide at 5 and 2.5 mg/kg): no mortalities; number of animals that ceased oocyst shedding compared to the saline treated calves ([1]; p>0.05): significant increase

Question: What does the source list for `CC[C@H]1OC(=O)C[C@@H](O)[C@H](C)[C@@H](O[C@@H]2O[C@H](C)[C@@H](O)[C@H](N(C)C)[C@H]2O)[C@@H](CCN2C[C@H](C)C[C@H](C)C2)C[C@@H](C)C(=O)/C=C/C(C)=C/[C@@H]1CO[C@@H]1O[C@H](C)[C@@H](O)[C@@H](OC)[C@H]1OC` [Tilmicosin, tilmicosin]?
Answer: 21 day average daily weight gain relative to saline [2]: responded similarly; clinical responses compared to saline treated animals [2]: improved clinical responses; oocyst shedding compared with the saline controls [2]: decreased oocyst shedding; calves that died due to coccidiosis [2]: Two animals died; mean daily attitude scores compared to the saline controls [2]: significant reductions; mean daily fecal consistency scores compared with the saline treated calves [2]: statistically significant reductions; mean daily hydration scores compared to the saline treated calves [2]: reductions; 21 Day Average Daily Gain ([2]; tilmicosin 10 mg/kg SIDX1, SC): 0.21 kg; Mortality Rates ([2]; tilmicosin 10 mg/kg SIDX1, SC): 2/10 (20%)
